In patent EP2910557A1, “Enantiopure tetrasubstituted pyrrolidines as scaffolds for proteasome inhibitors and medicinal applications thereof” (Ikerchem, S.L., priority 2014, dated 2015):

Columns and labels:
Experiment in all cases: Cancer cell growth inhibition, 72 h treatment
Assay type in all cases: cell-based
Jurkat = conditions: Homo sapiens, Hematologic Jurkat, Alamar Blue
Experimental: (§1) Cell culture-based assays were used to evaluate the ability of compounds of the invention to inhibit cancer cell growth.
(§2) Cells were obtained from the American Type Culture Collection (ATCC) and the European Collection of Cell Cultures. Cells were thawed in their appropriate media plus supplements (see table below). Cells were passaged at confluence by washing once in HBSS cation-free followed by a 3 minutes incubation with trypsin ([0.5 µg/ml]/EDTA [0.2 µg/ml]) (Gibco-BRL, 15400054) solution in HBSS at 37°C (except non-adherent cell lines - hematologic), and transferred to their appropriate media plus supplements. Prior to seeding at defined cell concentration, cells were recovered in medium, centrifuged, taken up in medium and counted.
(§3) All treatments were performed in triplicate. Experiments were carried out in 96-well cell culture plates (Cultek) and the cell lines seeded at the density mentioned in the table above and cultured at 37°C with 5% CO2. After 24h, media were supplemented by 100 µl/well of diluted test compound at variable final concentrations and incubated for 72 hours. Then, AlamarBlue® Reagent (Biosource DAL1100) was added to each well and incubated at 37°C for 4 hours. Relative fluorescent intensity that correlates with the number of living cells was read in a Cytofluor plate reader (Millipore) at 535/590 nm (Excitation/emission). After reading the AlamarBlue® signal, the hexosaminidase activitity was measured according to the following protocol: medium was removed and cells were washed once with PBS. 60 µl of substrate solution (p-nitrophenol-N-acetyl-beta-D-glucosaminide 7.5 mM [Sigma N-9376], sodium citrate 0.1 M, pH 5.0, 0.25% Triton X-1 00) was added to each well and incubated at 37°C for 1-2 hours; after this incubation time, a bright yellow colour appears; then, plates could be developed by adding 90 µl of developer solution (Glycine 50 mM, pH 10.4; EDTA 5 mM), and absorbance was recorded at 405 nm.
(§4) Note: In all cases assays were performed in Alamar Blue with the exception of those indicated (* = Hexosaminidase assay)

A431 = conditions: Homo sapiens
Experimental: as §1, §2, §3, §4

MDA-MB-468 = conditions: Homo sapiens, Breast cancer MDA-MB-468, Alamar Blue
Experimental: as §1, §2, §3, §4

SK-OV-3 = conditions: Homo sapiens, Ovarian cancer SK-OV-3, Alamar Blue
Experimental: as §1, §2, §3, §4

HepG2 = conditions: Homo sapiens, Liver cancer HepG2, Alamar Blue
Experimental: as §1, §2, §3, §4

SW480 = conditions: Homo sapiens
Experimental: as §1, §2, §3, §4

HCT-116 = conditions: Homo sapiens, Colon cancer HCT-116, Alamar Blue
Experimental: as §1, §2, §3, §4

RPMI-8226 = conditions: Homo sapiens, Multiple mieloma RPMI-8226, Alamar Blue
Experimental: as §1, §2, §3, §4

DU-145 = conditions: Homo sapiens, Prostate cancer DU-145, Alamar Blue
Experimental: as §1, §2, §3, §4

U-373 MG = conditions: Homo sapiens, U373 MG, Brain U-373 MG
Experimental: as §1, §2, §3, §4

K562 = conditions: Homo sapiens, Hematologic K562, Alamar Blue
Experimental: as §1, §2, §3, §4

T47D = conditions: Homo sapiens, Breast cancer T47D
Experimental: as §1, §2, §3, §4

U-87 MG = conditions: Homo sapiens, Brain U-87 MG, Hexosaminidase assay (*)
Experimental: as §1, §2, §3, §4

HT-29 = conditions: Homo sapiens, Colon cancer HT-29, Alamar Blue
Experimental: as §1, §2, §3, §4

MDA-MB-231 = conditions: Homo sapiens, Breast cancer MDA-MB-231, Alamar Blue
Experimental: as §1, §2, §3, §4

HT-1080 = conditions: Homo sapiens
Experimental: as §1, §2, §3, §4

A549 = conditions: Homo sapiens
Experimental: as §1, §2, §3, §4

MDA-MB-435 = conditions: Homo sapiens, Melanoma MDA-MB-435, Alamar Blue
Experimental: as §1, §2, §3, §4

LS174T = conditions: Homo sapiens, Colon cancer LS174T, Alamar Blue
Experimental: as §1, §2, §3, §4

HeLa = conditions: Homo sapiens, Cervical HeLa, Alamar Blue
Experimental: as §1, §2, §3, §4

RAMOS = conditions: Homo sapiens, Hematologic RAMOS, Alamar Blue
Experimental: as §1, §2, §3, §4

LNCaP = conditions: Homo sapiens, Prostate cancer LNCaP, Alamar Blue
Experimental: as §1, §2, §3, §4

MIA PaCa-2 = conditions: Homo sapiens, Pancreatic cancer MIA PaCa-2, Alamar Blue
Experimental: as §1, §2, §3, §4

COLO 205 = conditions: Homo sapiens
Experimental: as §1, §2, §3, §4

RCC 786-O = conditions: Homo sapiens, 786-0, Renal RCC 786-O, Alamar Blue
Experimental: as §1, §2, §3, §4

SK-Mel-28 = conditions: Homo sapiens, Melanoma SK-Mel-28, Alamar Blue
Experimental: as §1, §2, §3, §4

Daoy = conditions: Homo sapiens, Brain Daoy, Alamar Blue
Experimental: as §1, §2, §3, §4

NCI-H1650 = conditions: Homo sapiens
Experimental: as §1, §2, §3, §4

PC-3 = conditions: Homo sapiens, Prostate cancer PC-3, Alamar Blue
Experimental: as §1, §2, §3, §4

OVCAR-3 = conditions: Homo sapiens
Experimental: as §1, §2, §3, §4

NCI-H1975 = conditions: Homo sapiens
Experimental: as §1, §2, §3, §4

[1] = Colon cancer SW480, Hexosaminidase assay (*)
[2] = Fibrosarcoma HT-1080, Alamar Blue
[3] = Lung cancer A549, Hexosaminidase assay (*)
[4] = Colon cancer COLO 205, Alamar Blue
[5] = Lung cancer NCI-H1650, Hexosaminidase assay (*)
[6] = Ovarian cancer OVCAR-3, Hexosaminidase assay (*)
[7] = Lung cancer NCI-H1975, Hexosaminidase assay (*)
[8] = A-431, Epidermoid A431, Alamar Blue
[9] = Colon cancer SW480, Alamar Blue
[10] = Lung cancer NCI-H1650, Alamar Blue
[11] = Ovarian cancer OVCAR-3, Alamar Blue
[12] = Lung cancer NCI-H1975, Alamar Blue

Compound | EC50 (Jurkat) [µM] | EC50 (MDA-MB-468) [µM] | EC50 (SK-OV-3) [µM] | EC50 (HepG2) [µM] | EC50 (HCT-116) [µM] | EC50 (RPMI-8226) [µM] | EC50 (DU-145) [µM] | EC50 (K562) [µM] | EC50 (U-87 MG) [µM] | EC50 (HT-29) [µM] | EC50 (MDA-MB-231) [µM] | EC50 (MDA-MB-435) [µM] | EC50 (LS174T) [µM] | EC50 (HeLa) [µM] | EC50 (RAMOS) [µM] | EC50 (LNCaP) [µM] | EC50 (MIA PaCa-2) [µM] | EC50 (RCC 786-O) [µM] | EC50 (SK-Mel-28) [µM] | EC50 (Daoy) [µM] | other results
CC(C)C[C@H](NC(=O)[C@@H]1N[C@H](c2ccccc2)[C@@H]([N+](=O)[O-])[C@@H]1c1ccccc1)B(O)O [Example 1, (R)-3-methyl-1-((2R,3R,4S,5R)-4-nitro-3,5-diphenylpyrrolidine-2-carboxamido)butylboronic acid] | 2.5 | 4.1 | 4.1 | 1.4 | 1.9 | 0.15 | 1.9 | 6.3 | 12 | 3.5 | 5.1 | 1 | 0.72 | 28 | 2.4 | 0.39 | 5.7 | 4.7 | 1.3 | 1.3 | EC50 (A431; [8]): 0.97 µM; EC50 (SW480; [9]): 1.1 µM; EC50 (U-373 MG; Alamar Blue): 44 µM; EC50 (T47D; Alamar Blue): 10 µM; EC50 (HT-1080; [2]): 1.7 µM; EC50 (A549; Lung cancer A549, Alamar Blue): 7 µM; EC50 (COLO 205; [4]): 11 µM; EC50 (NCI-H1650; [10]): 3.3 µM; EC50 (PC-3): 1.5 µM; EC50 (OVCAR-3; [11]): 0.74 µM; EC50 (NCI-H1975; [12]): 25 µM
CC(C)C[C@H](NC(=O)[C@@H]1CCCN1)B(O)O [MG-319, {(R)-3-methyl-1-[(S)-pyrrolidine-2-carboxamido]butyl}boronic acid, reference compound] | 4.7 | 18 | 16 | 8.1 | 1.8 | 4.8 | 58 | 19 | 25 | 12.3 | 18 | 5.3 | 5.9 | 52 | 8.7 | 4.2 | 22 | 19 | 10 | 41 | EC50 (A431; [8]): 10 µM; EC50 (SW480; [9]): 8.8 µM; EC50 (U-373 MG; Alamar Blue): 92 µM; EC50 (T47D; Alamar Blue): 25 µM; EC50 (HT-1080; [2]): 8.9 µM; EC50 (COLO 205; Colon cancer COLO 205, Hexosaminidase assay (*)): 1.9 µM; EC50 (NCI-H1650; [10]): 14 µM; EC50 (PC-3): 26 µM; EC50 (OVCAR-3; [11]): 6.9 µM; EC50 (NCI-H1975; [12]): 47 µM

These reach a lower EC50 (Jurkat). Values come first.

EC50 (Jurkat) [µM] | EC50 (MDA-MB-468) [µM] | EC50 (SK-OV-3) [µM] | EC50 (HepG2) [µM] | EC50 (HCT-116) [µM] | EC50 (RPMI-8226) [µM] | EC50 (DU-145) [µM] | EC50 (K562) [µM] | EC50 (U-87 MG) [µM] | EC50 (HT-29) [µM] | EC50 (MDA-MB-231) [µM] | EC50 (MDA-MB-435) [µM] | EC50 (LS174T) [µM] | EC50 (HeLa) [µM] | EC50 (RAMOS) [µM] | EC50 (LNCaP) [µM] | EC50 (MIA PaCa-2) [µM] | EC50 (RCC 786-O) [µM] | EC50 (SK-Mel-28) [µM] | EC50 (Daoy) [µM] | Compound | other results
2 | 2.2 | 13 | 3.1 | 2.2 | 1.3 | 3.5 | 15 | 12 | 27 | 11 | 1.1 | 0.6 | 54 | 2.4 | 1.8 | 83 | 12 | 13 | 3.7 | CC(C)C[C@H](NC(=O)[C@@H]1N[C@H](c2ccccc2)[C@@H]([N+](=O)[O-])[C@@H]1c1ccc(F)cc1)B(O)O [Example 6, (R)-1-((2R,3R,4S,5R)-3-(4-fluorophenyl)-4-nitro-5-phenylpyrrolidine-2-carboxamido)-3-methylbutylboronic acid] | EC50 (A431; [8]): 0.1 µM; EC50 (SW480; [1]): 13 µM; EC50 (U-373 MG; Hexosaminidase assay (*)): 17 µM; EC50 (T47D; Hexosaminidase assay (*)): 21 µM; EC50 (HT-1080; Fibrosarcoma HT-1080, Hexosaminidase assay (*)): 16 µM; EC50 (A549; [3]): 12 µM; EC50 (COLO 205; [4]): 2.4 µM; EC50 (NCI-H1650; [5]): 12 µM; EC50 (PC-3): 7.1 µM; EC50 (OVCAR-3; [6]): 2.2 µM; EC50 (NCI-H1975; [7]): 7.3 µM
0.8 | 1 | 1.4 | 0.5 | 0.44 | 0.31 | 0.35 | 2.7 | 2 | 0.85 | 3.2 | 0.21 | 0.26 | 11 | 0.5 | 0.12 | 1.9 | 2.4 | 0.62 | 0.57 | CC(C)C[C@H](NC(=O)[C@@H]1N[C@H](c2ccc3ccccc3c2)[C@@H]([N+](=O)[O-])[C@@H]1c1ccccc1)B(O)O [Example 12, (R)-3-methyl-1-((2R,3R,4S,5R)-5-(naphthalen-2-yl)-4-nitro-3-phenylpyrrolidine-2-carboxamido)butylboronic acid] | EC50 (A431; [8]): 0.41 µM; EC50 (SW480; [9]): 0.56 µM; EC50 (U-373 MG; Alamar Blue): 11 µM; EC50 (T47D; Hexosaminidase assay (*)): 7.1 µM; EC50 (HT-1080; [2]): 0.46 µM; EC50 (A549; Lung cancer A549, Alamar Blue): 5.8 µM; EC50 (COLO 205; [4]): 2.4 µM; EC50 (NCI-H1650; [10]): 0.37 µM; EC50 (PC-3): 0.3 µM; EC50 (OVCAR-3; [11]): 0.33 µM; EC50 (NCI-H1975; [12]): 0.78 µM
0.08 | 0.32 | 1.3 | 0.56 | 0.64 | 0.06 | 0.91 | 1.2 | 0.5 | 3.5 | 2.8 | 0.31 | 0.14 | 13 | 0.53 | 0.38 | 2.4 | 0.43 | 1.6 | 0.78 | CC(C)C[C@H](NC(=O)[C@@H]1N[C@H](c2ccccc2)[C@@H]([N+](=O)[O-])[C@@H]1c1cccs1)B(O)O [Example 10, (R)-3-methyl-1-((2R,3R,4S,5R)-4-nitro-5-phenyl-3-(thiophen-2-yl)pyrrolidine-2-carboxamido)butylboronic acid] | EC50 (A431; A-431, Epidermoid A431, Hexosaminidase assay (*)): 0.03 µM; EC50 (SW480; [1]): 2.3 µM; EC50 (U-373 MG; Hexosaminidase assay (*)): 2.8 µM; EC50 (T47D; Alamar Blue): 0.57 µM; EC50 (HT-1080; [2]): 1.4 µM; EC50 (A549; [3]): 2.6 µM; EC50 (COLO 205; [4]): 0.31 µM; EC50 (NCI-H1650; [5]): 1.8 µM; EC50 (PC-3): 1.2 µM; EC50 (OVCAR-3; [6]): 0.86 µM; EC50 (NCI-H1975; [7]): 1.1 µM
